Several values for one entry are separate records, joined by “and”; a condition that tells them apart may be missing. Identical values can stand only once. Entries after “also recorded” stand apart in the source; their conditions may differ. Non-standard residues stand in square brackets, D forms with d. *: point of attachment. Oic = O=C(O)[C@@H]1C[C@@H]2CCCC[C@@H]2N1; ACC = NC(=O)Cc1cc(=O)oc2cc(N*)ccc12; Tic = O=C(O)[C@@H]1Cc2ccccc2CN1
How the values were obtained:
GrK = target: T1, GrK (Homo sapiens, UniProt P49863); test: GrA substrate selectivity testing on GrK; type: biochemical; conditions: 488 nM GrK
T1 construct: made in house; host or cells: Pichia pastoris
T1 sequence (P49863 27-264): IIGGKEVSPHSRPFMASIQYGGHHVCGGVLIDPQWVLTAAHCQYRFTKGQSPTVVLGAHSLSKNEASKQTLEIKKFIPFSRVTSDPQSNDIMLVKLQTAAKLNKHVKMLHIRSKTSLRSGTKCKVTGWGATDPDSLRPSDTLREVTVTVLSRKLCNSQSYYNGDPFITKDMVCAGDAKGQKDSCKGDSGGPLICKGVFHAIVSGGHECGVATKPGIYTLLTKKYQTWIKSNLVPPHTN
Excerpt: (§1) Since GrA and GrK are the most structurally similar Grs, they may recognize and hydrolyze the same natural and synthetic substrates. Therefore, we tested whether our new GrA substrates are also recognized by GrK or GrB (Figure 3A). For this experiment, we screened substrates SK8 to SK28 and a GrKref substrate (Ac-Tyr-Arg-Phe-Lys-ACC) or GrBref substrate (Ac-Ile-Glu-Pro-Asp-ACC) at the same concentration using a plate reader, and we monitored the increase in fluorescence over time. The linear portions of the diagram were analyzed, and as we expected, the majority of the substrates were well recognized by GrK, even better than their recognition by GrA. […] Based on that, we concluded that Tic-Gly-Oic-Arg is a leading sequence for a specific potent inhibitor and ABP for GrA.
(§2) Figure 3 (A) GrA substrate selectivity testing on GrK and GrB. Substrates SK8–SK28 and the reference GrK and GrB substrates were placed in a 96-well plate at a concentration of 200 μM and treated with GrK or GrB. […] Data present the average of 2 replicates as adjusted RFU/s.
(§3) Figure S2. Selectivity of SK15 substrate toward selected serine proteases (GrA, GrB, GrM, GrK,
(§4) PR3, and hNE). The reference substrates were as follows: Ac-Ile-Gly-Pro-Arg-ACC for GrA, Ac -Tyr-
Arg-Phe-Lys-ACC for GrK, Ac-Ile-Glu-Pro-Asp-ACC for GrB, Ac-Lys-Val-Pro-Leu-ACC for GrM, […]

proteinase 3 (PR3) = test: Selectivity of SK15 substrate toward PR3; type: biochemical; conditions: Figure S2: substrate 67 µM, 3.4 nM PR3
Excerpt: as §1, §3, §4
(§5) Arg-Phe-Lys-ACC for GrK, Ac-Ile-Glu-Pro-Asp-ACC for GrB, Ac-Lys-Val-Pro-Leu-ACC for GrM,
(§6) Ac-Glu(O-Bzl)-Lys(Ac)-Hyp(Bzl)-Nva-ACC for PR3 and Ac-Arg(NO)2-Glu(Bzl)-Oic-Abu-ACC for hNE.
(§7) Substrates were placed in a 96-well plate at a concentration of 67 µM and treated with optimal
(§8) and emission wavelengths. Data present the average of 2 replicates as adjusted RFU/s.
(§9) Figure S3. Detection of active GrA in NK92 cells. […]

granzyme M (GrM) = test: Selectivity of SK15 substrate toward GrM; type: biochemical, human; conditions: Figure S2: substrate 67 µM, 74 nM GrM
Excerpt: as §1, §3, §4, §5, §6, §7, §8, §9

[1] = tested on: human neutrophil elastase (hNE); test: Selectivity of SK15 substrate toward hNE; type: biochemical; conditions: Figure S2: substrate 67 µM, 3.3 nM hNE
Excerpt: as §1, §3, §4, §5, §6, §7, §8, §9

GrB = target: T2, GrB (Homo sapiens, UniProt P10144); test: GrA substrate selectivity testing on GrB; type: biochemical; conditions: substrate 200 μM (Fig 3A) or 67 μM, 18 nM GrB
T2 construct: made in house; host or cells: Pichia pastoris
Excerpt: as §1, §2, §3, §4, §5, §6, §7, §8
Figure S3. Detection of active GrA in NK92 cells.
(also on this page, place not known: S K15 hNE) . Ac-Tyr- -Arg(NO)2-Glu(Bzl)-Oic-Abu-ACC ( 89 G rA cell s. reference reference SK15 reference SK15 reference SK15 reference SK15 reference SK15 0 50 100 substrate turnover, %RFU/s PR3GrMGrBGrK hNEGrA SK15 selectivity) […]

GrA [2] = test: Screening of individual substrates SK7–SK28 with GrA; type: biochemical, human; conditions: Figure 2A: substrate 1 μM, 89 nM enzyme (method b64: 67 μM, 583 nM GrA); adjusted RFU/s, average of 2 replicates
Excerpt: Data present the average of 2 replicates as adjusted RFU/s. (B) Comparison of SK7 (blue) and SK15 (red) structures.

GrA [3] = target: T3, GrA (Homo sapiens, UniProt P12544); test: Steady-state Michaelis–Menten kinetics of fluorogenic ACC substrates with GrA; type: biochemical
T3 construct: made in house; host or cells: Pichia pastoris
T3 sequence (P12544 29-262): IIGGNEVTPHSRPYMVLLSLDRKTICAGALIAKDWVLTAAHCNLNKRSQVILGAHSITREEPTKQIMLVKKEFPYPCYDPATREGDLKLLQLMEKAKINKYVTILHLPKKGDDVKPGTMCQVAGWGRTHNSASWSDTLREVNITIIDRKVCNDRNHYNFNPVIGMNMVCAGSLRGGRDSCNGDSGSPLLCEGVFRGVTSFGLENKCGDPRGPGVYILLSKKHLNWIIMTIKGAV
Excerpt: All chemical and biological reagents were purchased from commercial suppliers and used without further purification. The following reagents for solid phase peptide synthesis, Rink Amide RA resin (particle size 200–300 mesh, loading 0.74 mmol/g), 2-chlorotrityl chloride resin, Fmoc-protected amino acids, biotin, 1-[bis(dimethylamino)methylene]-1H-1,2,3-triazolo[4,5-b] pyridinium 3-oxid hexafluorophosphate (HATU), piperidine, diisopropylcarbodiimide (DICI), and trifluoroacetic acid (TFA), were purchased from Iris Biotech GmbH (Marktredwitz, Germany); anhydrous N-hydroxybenzotriazole (HOBt, purity >98%) was purchased from Creosauls; 2,4,6-collidine (2,4,6-trimethylpyridine), HPLC pure acetonitrile, and triisopropylsilane (TIPS) were purchased from Sigma-Aldrich (Poznan, Poland); and N,N-diisopropylethylamie (DIPEA) was purchased from VWR International (Gdansk, Poland). Solvents such as N,N-dimethylformamide (DMF), dichloromethane (DCM), methanol (MeOH), diethyl ether (Et2O), and acetic acid (AcOH) were purchased from Avantor (Gliwice, Poland). Cy5 was purchased from Lumiprobe GmbH (Hannover, Germany). Human neutrophil elastase was purchased from BioCentrum (Kraków, Poland) and proteinase 3 from Athens Research Technology (Athens, USA). Anti-GrA antibody (rabbit, monoclonal, ab209205) was obtained from Abcam (Cambridge, Great Britain). All cell lines were purchased from DSMZ (Braunschweig, Germany) or ATCC (Manassas, USA). All kinetic assays were performed using a Spectra Max Gemini XPS spectrofluorometer (Molecular Devices) on 96-well Corning plates. The parameters of the process were as follows: 37 °C; excitation/emission wavelength, 355/460 nm; cutoff, 455 nm; varying concentrations of substrates and enzyme. All measurements were performed in duplicate, and the data represent the average of these repetitions

[4] = GrA 93 nM, assay buffer pH 7.5, 37 °C, ACC fluorescence 355/460 nm

T2 sequence (P10144 21-247): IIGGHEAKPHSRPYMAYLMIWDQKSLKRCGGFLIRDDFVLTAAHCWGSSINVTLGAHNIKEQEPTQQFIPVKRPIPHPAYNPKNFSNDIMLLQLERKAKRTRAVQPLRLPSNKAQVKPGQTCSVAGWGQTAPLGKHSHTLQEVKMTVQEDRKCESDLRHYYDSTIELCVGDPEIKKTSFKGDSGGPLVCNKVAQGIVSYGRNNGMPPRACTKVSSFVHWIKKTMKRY

In the case of “Ac-[Tic]G[Oic]R-{ACC} (SMILES CC(=O)N1Cc2ccccc2C[C@H]1C(=O)NCC(=O)N1[C@H](C(=O)N[C@@H](CCCNC(=N)N)C(=O)Nc2ccc3c(CC(N)=O)cc(=O)oc3c2)C[C@@H]2CCCC[C@@H]21) [SK15]”, the “hydrolysis by GrK” value (GrK; Figure 3A and S2, substrate 200 μM (Fig 3A) or 67 μM (Fig S2), adjusted RFU/s, 2 replicates) is reported as 20%, the “hydrolysis by GrK (in words)” value (GrK; substrate 200 μM (Fig 3A) or 67 μM) is reported as “barely hydrolyzed” and the “recognition by PR3 (in words)” value (proteinase 3 (PR3)) is reported as “not recognized”. The “recognition by GrM (in words)” value (granzyme M (GrM)) was “not recognized”, the “recognition by hNE (in words)” value [1] was “not recognized” and the “hydrolysis by GrB (in words)” value (GrB) was “inactive; also recorded: not recognized”. For the same substance, the “hydrolysis of individual substrate by GrA (in words)” value (GrA [2]) was “most active substrate”, the kcat (GrA [3]; [4]) was 0.27 ± 0.0029 s⁻¹ and the kcat/KM (GrA [3]; [4]) was 3100 M^–1 s^–1 and 3100 ± 80 s^–1 M^–1. For the same substance, the Km (GrA [3]; GrA 93 nM, substrate 1000–7.81 μM, 50 mM Tris, 100 mM NaCl, 5 mM CaCl2, 0.01% Tween-20, pH 7.5, 37 °C, ACC fluorescence 355/460 nm, Michaelis–Menten nonlinear regression, duplicate) was 87.4 ± 1.3 µM and the “GrA activity against the substrate relative to the reference sequence SK7” value (GrA [3]; ratio to SK7) was “approximately 40 fold”.

Source: publication PMC7590976, “Detection of Active Granzyme A in NK92 Cells with Fluorescent Activity-Based Probe” (Journal of Medicinal Chemistry, 2020)
